Experimental data taken from article PMC5748833, “Synthesis and Biological Evaluation of Novel Hybrid Molecules Containing Purine, Coumarin and Isoxazoline or Isoxazole Moieties” (The Open Medicinal Chemistry Journal, 2017).

How the values were obtained:
rat monoamine oxidase A = target: T1, rat monoamine oxidase A (Rattus norvegicus, UniProt P21396); assay: Inhibition of MAO-A (spectrofluorimetric method); assay type: biochemical; settings: 10 μM compound
T1 construct: from tissue
T1 sequence (P21396 1-526): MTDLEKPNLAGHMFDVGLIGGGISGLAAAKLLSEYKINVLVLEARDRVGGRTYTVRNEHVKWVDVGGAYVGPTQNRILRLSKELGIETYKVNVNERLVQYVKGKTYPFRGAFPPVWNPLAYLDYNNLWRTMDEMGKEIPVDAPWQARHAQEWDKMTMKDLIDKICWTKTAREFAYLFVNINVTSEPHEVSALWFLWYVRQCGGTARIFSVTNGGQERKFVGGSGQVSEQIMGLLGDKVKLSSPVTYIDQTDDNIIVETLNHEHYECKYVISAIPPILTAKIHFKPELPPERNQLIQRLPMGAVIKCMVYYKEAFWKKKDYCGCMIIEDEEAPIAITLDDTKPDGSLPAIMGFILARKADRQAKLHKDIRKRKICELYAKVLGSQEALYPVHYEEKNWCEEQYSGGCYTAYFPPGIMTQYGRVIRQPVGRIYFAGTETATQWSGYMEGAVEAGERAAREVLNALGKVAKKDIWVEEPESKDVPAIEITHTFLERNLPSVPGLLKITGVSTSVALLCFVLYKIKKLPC
Description: 2.2.2.6 Inhibition Study on MAOs in vitro
Inhibition of rat monoamine oxidase A and B was studied by means of a spectrofluorimetric method as previously detailed.

[1] = Inhibition of linoleic acid lipid peroxidation (AAPH); settings: 100 μM compound, 37°C
Procedure, shortened: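 Sodium linoleate oxidation in 0.05 M phosphate buffer, pH 7.4, at 37°C, initiated by AAPH, with test compounds added from DMSO stock. Conjugated diene hydroperoxide formation followed at 234 nm, with a DMSO-only control and Trolox as standard.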

[2] = Reducing activity of the stable radical DPPH; settings: 100 μM compound, after 20 min
Procedure, shortened: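 Compounds (100 μM) mixed with equal volume of 100 μM DPPH in absolute ethanol at room temperature; absorbance at 517 nm read after 20 and 60 min against ethanol control. Activity given as RA% (reducing activity); NDGA standard.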

[3] = target: T2, equine serum butyrylcholinesterase (esBChE) (Equus caballus, UniProt P81908); assay: Inhibition of esBChE (Ellman's test); assay type: biochemical; settings: read-out: esBChE % inhibn. @ 10 μΜ
T2 construct: purchased Sigma; host or cells: equine serum
T2 sequence (P81908 whole entry): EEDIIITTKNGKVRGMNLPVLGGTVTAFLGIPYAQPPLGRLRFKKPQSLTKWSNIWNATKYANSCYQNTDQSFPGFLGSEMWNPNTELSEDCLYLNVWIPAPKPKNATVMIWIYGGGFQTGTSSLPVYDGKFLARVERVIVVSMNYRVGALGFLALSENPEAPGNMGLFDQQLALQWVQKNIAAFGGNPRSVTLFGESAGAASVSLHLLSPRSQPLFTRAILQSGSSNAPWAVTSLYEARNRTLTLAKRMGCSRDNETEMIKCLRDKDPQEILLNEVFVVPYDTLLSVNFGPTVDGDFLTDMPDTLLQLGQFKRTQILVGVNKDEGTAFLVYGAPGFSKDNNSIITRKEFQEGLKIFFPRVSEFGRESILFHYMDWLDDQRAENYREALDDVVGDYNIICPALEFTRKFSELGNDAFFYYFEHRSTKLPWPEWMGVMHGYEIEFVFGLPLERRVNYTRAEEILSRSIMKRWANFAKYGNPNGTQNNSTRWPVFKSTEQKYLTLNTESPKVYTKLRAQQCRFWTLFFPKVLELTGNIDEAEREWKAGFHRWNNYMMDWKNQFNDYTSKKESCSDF
Description: (§1) 2.2.2.5 Inhibition Study on ChEs in vitro
(§2) In vitro inhibition of electric eel acetylcholinesterase (eeAChE; 463 U/mg, Sigma) and equine serum butyrylcholinesterase (esBChE; 13 U/mg, Sigma) was investigated with a 96-well plate procedure based on the classical Ellman’s spectrophotometric test, as already described.

[4] = target: T3, electric eel acetylcholinesterase (eeAChE) (Electrophorus electricus, UniProt O42275); assay: biochemical; assay type: biochemical; settings: read-out: eeAChE IC50 μΜ
T3 construct: purchased Sigma
T3 sequence (O42275 24-633): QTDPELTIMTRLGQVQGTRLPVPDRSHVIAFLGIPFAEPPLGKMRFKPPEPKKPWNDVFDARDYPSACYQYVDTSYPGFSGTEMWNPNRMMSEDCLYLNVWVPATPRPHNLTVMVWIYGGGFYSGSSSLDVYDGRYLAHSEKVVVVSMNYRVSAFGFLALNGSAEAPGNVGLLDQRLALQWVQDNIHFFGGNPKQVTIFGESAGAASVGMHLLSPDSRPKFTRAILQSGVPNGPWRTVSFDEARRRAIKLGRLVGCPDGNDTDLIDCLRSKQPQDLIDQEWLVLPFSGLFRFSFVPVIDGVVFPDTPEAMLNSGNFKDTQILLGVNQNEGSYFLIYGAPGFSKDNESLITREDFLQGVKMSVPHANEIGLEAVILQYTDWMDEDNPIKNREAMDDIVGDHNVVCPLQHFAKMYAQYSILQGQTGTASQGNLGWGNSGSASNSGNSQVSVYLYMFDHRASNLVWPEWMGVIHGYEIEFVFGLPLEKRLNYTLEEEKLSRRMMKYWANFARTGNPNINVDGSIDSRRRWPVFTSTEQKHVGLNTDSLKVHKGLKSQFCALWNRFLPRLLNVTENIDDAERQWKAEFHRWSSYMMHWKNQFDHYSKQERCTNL
Description: as §1, §2

Row | Structure (SMILES) | MAO-A (%) @ 10μΜ (rat monoamine oxidase A) | LP % @ 100μΜ (inhibition of lipid peroxidation) [1] | RA% @ 100μΜ (reducing activity, DPPH) [2] | inhibition at 10 µM [3] | IC50 [4]
1 | O=c1cc(OCC2CC(Cn3cnc4c(N5CCCCC5)ncnc43)=NO2)c2ccccc2o1 (stereo not drawn) [4f] | no | 62% | 3% | 36% | 1.4 µM
2 | Cc1cc(=O)oc2ccc(OCC3=NOC(Cn4cnc5c(Cl)ncnc54)C3)cc12 (stereo not drawn) [11b] | 15% | no | 5% | 8% | 5.9 µM
3 | O=c1cc(OCc2cc(Cn3cnc4c(N5CCOCC5)ncnc43)no2)c2ccccc2o1 [13i] | 6% | 74% | no | 18% | 5 µM
